Reference: patent US20030121068A1, “Vector encoding suicide and marker constructs” (priority 2001, published 2003)

What was measured:
[1] = Adverse effects of 5-FC injections in mice; assay type: in vivo, NOD/Scid mice; conditions: 400 mg/kg, day 5 through 19, control mice injected with saline
Description: In order to determine whether genetically engineered CEM cells could be effectively eradicated in vivo, NOD/Scid mice were utilized. After being exposed to 150 rads of radiation on day 1, four groups of mice were injected with saline (control) or 5×10^6 engineered cells on day 2. The remaining three groups included non-CD containing group (LNGFRSN), E. coli fusion construct containing group (LNGCDeSN) and the Saccharomyces fusion construct-containing group (LNGCDsSN). The genetically engineered cells were suspended in PBS at a 5×10^6 cells/0.5 ml and injected via the tail vein. Commencing day 5 though day 19, the mice were injected with 5-FC (Sigma, cat no. F-7129, lot no. 110K4012) at 400 mg/kg using a stock solution of 12.5 mg/ml, prepared in normal saline. After two weeks of 5-FC treatment, the mice were followed to assess mortality within each group. A Kaplan Meyer analysis was performed to determine the effect of 5-FC treatment for each group. The experiment was continued for 100 days after initiation.
As expected, control mice injected with saline survived the duration of the experiment. […] This group serves as a second control against mice injected with CD containing fusion constructs. […]

NIH 3T3 and CEM cells = experiment: MTS cytotoxicity assay of transduced cells in 5-FC; assay type: cell-based, murine fibroblasts (NIH 3T3); human T cells (CEM); conditions: untransduced NIH 3T3 and CEM cells
Description: CD function was tested by cytotoxicity assays in which transduced cells are exposed to various concentrations of 5-FC in 96 well plates. Assays were initiated using 500 cells/well of NIH cells or 10,000 cells/well of CEM cells placed in culture with semi-log increasing concentrations of 5-FC for a period of 5 days. An MTS (Promega, Cell Titre 96; cat no. G5430, GI 11) colorimetric assay (based on the conversion of a tetrazolium dye to formazan) was utilized to quantitate the concentration of viable cells on day 5. The absorbance of UV light at a wavelength of 565 nm at a given concentration of 5-FC was used to calculate the LD50 using a μQuant plate reader (Bio Tek Instruments Inc.). The fusion constructs were tested alongside controls containing only the NGFR and the CD constructs.
We tested to determine if the CD construct remained functional in the fusion protein. Cells were incubated with varying concentrations of 5-FC in 96-well plates. After 5 days, MTS reagent was added as per manufacturers recommendations. The reaction involves a color change based on the number of viable cells as the tetrazolium dye changes to formazan. Absorption of UV light at 565 nm can then be used to assess viability (shown in FIG. 3 as percentage of viable cells). Untransduced cells are resistant to the effects of 5-FC. […]

## Nc1nc(=O)[nH]cc1F [5-FC, 5-fluorocytosine]
[1]
  adverse effects of 5-FC injections: No adverse effects
NIH 3T3 and CEM cells
  effect of 5-FC on untransduced cells: resistant
